Marks after values point to notes of the source that are not given here.
Columns and labels:
5% DSS murine colitis [1] = experiment: Acute murine 5% DSS colitis model, Experiment 1; type: in vivo; conditions: for DAI at day 7: 10 mg/kg daily for 7 days, vehicle 9.3±0.51; for DAI on the day of autopsy versus vehicle controls: compound 6 3-30 mg/kg at each dose level; for colon pathology (histology scores) relative to vehicle: compound 6 at both 10 and 30 mg/Kg, prednisolone 5 mg/Kg; for colon IL1β level / colon IL6 level / colon TNFα level: day 7; for colon IL1β level: DSS-elevated 0.744±0.076 ng/mg; for colon IL6 level: DSS-elevated 1.057±0.1784 ng/mg; for colon TNFα level: DSS-elevated 1.478±0.378 ng/mg
From the text: The study is widely used as a model for studying the pathogenesis of UC and also for screening new therapeutic interventions for the treatment of UC.
In these studies, an acute colitis model was used, with 5% DSS administered in the drinking water of BALB/c mice. This dosage regime induces severe acute colitis, by days 7-8 mice had overt rectal bleeding and marked weight loss; unless sacrificed beforehand, all mice would have died by days 10-12.
Specific Pathogen-Free BALB/c mice, 6-8 weeks of age, were obtained from a commercial supplier (Harlan UK). Mice were fed irradiated diet and housed in individually ventilated cages (Tecniplast UK) under positive pressure.
DSS (5%) was dissolved in drinking water. Compounds were administered orally at a dose of 10 mg/kg or 30 mg/kg on days 0-7, and mice were culled on day 8 or day 9, depending on the severity of the disease. The mice were checked each day for morbidity and the weight of individual mice was recorded. Induction of colitis was determined upon autopsy, length of colon and histology. Colons were recovered and stored at −20° C. for immunological analysis. All of the compounds and experimental groups are randomly alphabetically labelled. Throughout experiments all data recording was performed in a blind manner. The codes on boxes/groups were not broken until after the data was analysed i.e. boxes labelled A, B, C etc were identified as untreated, DSS-treated, or DSS+compound-treated.
To quantify the extent of colitis, a disease activity index (DAI) was determined based on weight loss, faecal blood and stool consistency. A score was given for each parameter, with the sum of the scores used as the DAI. For each treatment group n=8.
All compounds were prepared for oral gavage (0.1 mL per os (p.o.) per 10 g body weight) as a suspension in 0.5% carboxymethyl cellulose/2% Tween 80, at a dose of 3-30 mg/Kg.

[2] = Solubility in water and buffers; type: physicochemical
Procedure: The sodium salt, potassium salt, calcium salt, α-methylbenzylamine salt and N-Methyl-(D)-Glucamine salt were synthesised. The sodium and calcium salt were unsuccessful. The three salts of compound 5, named potassium salt, α-methylbenzylamine salt and N-Methyl-(D)-Glucamine salt were used for solubility and partition coefficient (log P) studies.
The solubility of the four compounds were determined: […]

[3] = Partition coefficient (log P), HPLC method; type: physicochemical; conditions: reverse phase C18 HPLC; for Acid Log10 POW: acidic pH; for Basic Log10 POW: alkaline pH; for Neutral Log10 POW: neutral pH
From the text: The partition coefficient of compound 5 and related analogous compounds was investigated using the HPLC method (reverse phase C18 HPLC column) at neutral, acidic and alkaline pH.

5% DSS murine colitis [4] = experiment: DSS murine colitis, Experiment 2 (Method 2); type: in vivo, BDF1 male mice; conditions: 10 ml/kg oral gavage daily day 0-6, 5-ASA 100 mg/kg; for DAI at day 7 in comparison with vehicle: 31 at 2 mg/ml, 47 at 4 mg/ml
Procedure: A total of 90 BDF1 (H. pylori-free, murine norovirus-free) male mice (Harlan Laboratories, UK) were used in the study. Animals were 8-10 weeks old on supply and used at 10-12 weeks of age. All mice were held in individually ventilated cages (IVCs) in an SPF (Specific Pathogen Free) barrier unit. The animals were identified by numbered cages and by ear punches.
DSS (MP Biomedicals 0216011090, lot# M2709) was prepared as a 5% (w/v) solution in the drinking water and made fresh daily on days 0 to 6 inclusive. DSS was administered from day 0 to day 7.
Test items were stored at −20° C. until the initiation of the study. Each test item was formulated as a homogenous suspension in 0.5% carboxymethyl cellulose (CMC, Sigma C4888) in sterile water (Sigma W3500, lot# RNBC1419), using an Ultraturax homogeniser, on study day −1. Compound 31 was formulated at 2 mg/ml and 47 was formulated at 4 mg/ml. After formulation the test item and the vehicle stocks anonymised with a letter code. All solutions were stored at 4° C. during the study, with 3.8 ml of each suspension being dispensed daily. Test items were administered by oral gavage, daily at 09.00 hrs, at 10 ml/kg, from study day 0 to study day 6.
5-ASA (5-Aminosalicylic acid, Sigma A3537, lot#051M1878V) was aliquoted into preweighed amounts between 71 and 84 mg. Like test item suspensions, these aliquots were anonymised by a letter code. Individual aliquots were formulated as a 10 mg/ml suspension in 0.5% CMC (Sigma C4888) in sterile water (Sigma W3500, lot# RNBC1419) on each day of dosing. 5-ASA was administered by oral gavage, daily at 09.00 hrs, at 10 ml/kg to give a dose of 100 mg/kg, from study day 0 to study day 6. 2.5 Clinical examinations
Any animal was culled if the weight loss was greater than 20%. Animal well-being was monitored daily. Once daily from day 0 until the end of the study, all mice were weighed and assessed for stool consistency, and the presence of overt blood in the stool or around the anus according to the criteria in 2.1
At necropsy, observation of stool in the large bowel was used to supplement in-life observation. […]

[5] = tested on: chronic colitis in IL10-/- mice; experiment: Chronic IL10-/- colitis model; type: in vivo, IL10-/- BALB/c strain mice; conditions: 300 mg/kg/week oral, MWF
Procedure: FIG. 15: Is a group showing weight loss in IL10^−−/−− mice treated with vehicle or compound 6. Mice were administered compound 6 (300 mg/kg/week) or vehicle orally on a Monday/Wednesday/Friday (MWF) dosing schedule. Mice were ˜4 weeks of age at start of experiment and were treated for 9 weeks. Mice were weighed weekly and data are presented as Mean±SEM from 9-12 mice per group. Mice were monitored for overt disease, rectal prolapse, and moribund animals were humanely killed;
Mice with a deletion in the IL10^−−/−− gene spontaneously develop chronic colitis, with the age of onset and the severity of the disease being dependent on background mouse strain and the conditions in which the animals are housed. The onset of colitis in IL10^−−/−− mice housed under the conditions used in this study was also strain dependent, with an earlier onset and greater severity, in terms of mortality, in BALB/c strain mice relative to C57BL/6 strain animals. In this experiment, animals received oral treatment on a MWF regime over 9 weeks. Initially, both groups of mice progressively gain weight (FIG. 15). […] By week 9 animals had marked weight loss, with one moribund animal humanely killed on day 60 in each group. As other mice were losing weight and developing clinical symptoms of disease, both groups were culled at week 9 (day 63) and analysed.

[6] = compound 6 10 and 30 mg/kg groups, Prednisolone 5 mg/kg
[7] = compound 6 30 mg/kg, Prednisolone 5 mg/kg

Structure (SMILES): CNCC(O)C(O)C(O)C(O)CO.O=C(O)c1ccc(C[C@]2(C3=Cc4ccccc4C3)Cc3ccccc3[C@H]2O)cc1 [Compound 7, 6-(Methylamino)hexane-1,2,3,4,5-pentanol 4-(((1S,2R)-1-hydroxy-2,3-dihydro-1H,1′H-2,2′-biinden-2-yl)methyl)benzoate]
- DAI at day 7 (5% DSS murine colitis [1]): no significant (P>0.05) effect
- solubility, Milli-RO H20 ([2]; Milli-RO water, listed as Compound 5 N-Methyl-D-Glucamine salt): >60,000* μg/mL
- solubility, pH 4.0 Buffer ([2]; pH 4.0 buffer): 0.14 μg/mL
- solubility, pH 7.0 Buffer ([2]; pH 7.0 buffer, listed as Compound 5 N-Methyl-D-Glucamine salt): >60,000* μg/mL
- solubility, pH 9.0 Buffer ([2]; pH 9.0 buffer, listed as Compound 5 N-Methyl-D-Glucamine salt): >60,000* μg/mL
- Acid Log10 POW [3]: 3.8
- Basic Log10 POW [3]: 3.5
- Neutral Log10 POW [3]: 3.5

Structure (SMILES): O=C(O)c1ccc(C[C@]2(C3=Cc4ccccc4C3)Cc3ccccc3[C@@H]2O)cc1 (single isomer, unassigned) [Compound 3]
- DAI at day 6 versus vehicle (5% DSS murine colitis [1]; 30 mg/kg p.o.): no statistical (P>0.05) difference
- activity in 5% DSS murine colitis model (5% DSS murine colitis [1]; 30 mg/kg p.o. daily for 7 days): minimal activity

Structure (SMILES): NCC(=O)O[C@@H]1c2ccccc2C[C@@]1(Cc1ccc(C(=O)O)cc1)C1=Cc2ccccc2C1 [Compound 31, 4-{[(1′S,2′S)-1′-(glycyloxy)-1′,3′-dihydro-1H,2′H-2,2′-biinden-2′-yl]methyl}benzoic acid]
- DAI at day 7 in comparison with vehicle (5% DSS murine colitis [4]): reduced DAI comparable or equal to 5ASA

Structure (SMILES): O=C(O)c1ccc(C[C@@]2(C3=Cc4ccccc4C3)Cc3ccccc3[C@@H]2O)cc1 [Compound 4, 4-(((1R,2S)-1-hydroxy-2,3-dihydro-1H,1′H-2,2′-biinden-2-yl)methyl)benzoic acid]
- activity in 5% DSS murine colitis model (5% DSS murine colitis [1]; 30 mg/kg p.o. daily for 7 days): almost devoid of activity
- disease activity index (DAI) at day 7 (5% DSS murine colitis [1]; 30 mg/kg p.o. daily for 7 days, vehicle controls 9.0±0.53): without activity

Structure (SMILES): O=C(O)c1ccc(C[C@@]2(C3=Cc4ccccc4C3)Cc3ccccc3[C@H]2O)cc1 (single isomer, unassigned) [Compound 2]
- activity in 5% DSS murine colitis model (5% DSS murine colitis [1]; 30 mg/kg p.o. daily for 7 days): highly active

Structure (SMILES): O=C(O)c1ccc(C[C@@]2(C3=Cc4ccccc4C3)Cc3ccccc3[C@H]2O)cc1 [Compound 6, 6-(Methylamino)hexane-1,2,3,4,5-pentanol 4-(((1S,2S)-1-hydroxy-2,3-dihydro-1H,1′H-2,2′-biinden-2-yl)methyl)benzoate]
- inhibition of colon shortening (colon length) versus vehicle, day 7 (5% DSS murine colitis [1]; 3 mg/kg): did not have a significant effect
- therapeutic efficacy in the DSS model (5% DSS murine colitis [1]; compound 6 30 mg/Kg versus prednisolone 5 mg/Kg): comparable, or better, efficacy relative to prednisolone
- colon length compared with Prednisolone, day 7 (5% DSS murine colitis [1]; compound 6 30 mg/kg, P<0.05): significantly better than Prednisolone
- DAI on the day of autopsy versus vehicle controls (5% DSS murine colitis [1]; Prednisolone 5 mg/kg): significantly (P<0.05-P<0.01) lower DAI than vehicle controls
- inhibition of colon shortening (colon length) versus vehicle, day 7 (5% DSS murine colitis [1]; [6]): did have a significant effect
- colon pathology (histology scores) relative to vehicle (5% DSS murine colitis [1]): dose-dependent and highly statistically significant reduction
- colon IL1β level (5% DSS murine colitis [1]; [7]): significant (P<0.05, 30 mg/kg) and dose-dependant reduction
- colon IL6 level (5% DSS murine colitis [1]; [7]): significant (P<0.05, 30 mg/kg) and dose-dependant reduction
- colon TNFα level (5% DSS murine colitis [1]; [7]): significant (P<0.05, 30 mg/kg) and dose-dependant reduction
- overt reactions in mice (5% DSS murine colitis [1]; oral daily for 7 days, 3, 10 and 30 mg/Kg): no overt reactions
- Acid Log10 POW [3]: 2.6
- Basic Log10 POW [3]: 4.3
- Neutral Log10 POW [3]: 3.5
- survival over the 9 weeks, Kaplan-Meier analysis versus vehicle [5]: no statistical difference in survival
- weight gain ([5]; vehicle stopped gaining weight from week 5): maintained weight gain until week 8
- Serum Amyloid A (SAA) levels relative to vehicle ([5]; week 9): significantly (P<0.05; Student's t-test) reduced
- extent of colon pathology (histology score) relative to vehicle ([5]; week 9): significantly reduced

Structure (SMILES): O=C(O)c1ccc(C[C@]2(C3=Cc4ccccc4C3)Cc3ccccc3[C@H]2O)cc1 [Compound 5, 4-(((1S,2R)-1-hydroxy-2,3-dihydro-1H,1′H-2,2′-biinden-2-yl)methyl)benzoic acid]
- DAI at day 7 (5% DSS murine colitis [1]): no significant (P>0.05) effect
- activity in 5% DSS murine colitis model (5% DSS murine colitis [1]; 30 mg/kg p.o. daily for 7 days): highly active
- Acid Log10 POW [3]: 3.9
- Basic Log10 POW [3]: 3.7
- Neutral Log10 POW [3]: 3.7

Structure (SMILES): C[C@]12C=CC(=O)C=C1CC[C@@H]1[C@@H]2[C@@H](O)C[C@@]2(C)[C@H]1CC[C@]2(O)C(=O)CO [Prednisolone, reference compound]
- DAI on the day of autopsy versus vehicle controls (5% DSS murine colitis [1]; Prednisolone 5 mg/kg): significantly (P<0.01; ANOVA; Dunnett Multiple Comparison Test) reduced DAI scores
- inhibition of colon shortening (colon length) versus vehicle, day 7 (5% DSS murine colitis [1]; [6]): did have a significant effect
- colon pathology (histology scores) relative to vehicle (5% DSS murine colitis [1]): no significant improvement
- colon IL1β level (5% DSS murine colitis [1]; [7]): reduced (p<0.05)
- colon IL6 level (5% DSS murine colitis [1]; [7]): reduced (p<0.05)
- colon TNFα level (5% DSS murine colitis [1]; [7]): reduced (p<0.05)

Structure (SMILES): O=C(Nc1ccc(O)c(C(=O)O)c1)c1ccc(C[C@@]2(C3=Cc4ccccc4C3)Cc3ccccc3[C@H]2O)cc1 [Compound 47, 2-hydroxy-5-(4-(((1S,2S)-1-hydroxy-2,3-dihydro-1H,1′H-[2,2′-biinden]-2-yl)methyl)benzamido)benzoic acid]
- DAI at day 7 in comparison with vehicle (5% DSS murine colitis [4]): reduced DAI comparable or equal to 5ASA
- loss of body weight at day 7 in comparison with vehicle control (5% DSS murine colitis [4]; 47 formulated at 4 mg/ml): does not result in an increase in loss of body weight

— patent US9260376B2, “Compounds for use in the treatment of immune related inflammatory disease” (VENANTIUS LIMITED, priority 2011, dated 2016)
